The source of these data is patent US11584755B2 (IDEAYA BIOSCIENCES, INC., priority 2017, dated 2023).

Molecules are shown by their SMILES. Bounds are passed on as bounds.

Chain of hFEN1 (P39748 whole entry, canonical isoform): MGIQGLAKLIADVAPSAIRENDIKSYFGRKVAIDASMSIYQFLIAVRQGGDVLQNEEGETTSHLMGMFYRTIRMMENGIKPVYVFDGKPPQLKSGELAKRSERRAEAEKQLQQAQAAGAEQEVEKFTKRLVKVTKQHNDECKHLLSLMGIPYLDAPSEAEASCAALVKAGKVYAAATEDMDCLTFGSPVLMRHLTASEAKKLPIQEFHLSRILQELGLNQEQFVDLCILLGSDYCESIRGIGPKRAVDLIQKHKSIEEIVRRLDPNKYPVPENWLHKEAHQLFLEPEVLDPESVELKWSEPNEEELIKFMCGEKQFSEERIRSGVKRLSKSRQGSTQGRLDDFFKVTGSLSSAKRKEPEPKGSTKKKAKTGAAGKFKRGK

The assay has as its target hFEN1 (Homo sapiens (Human), UniProt P39748). Nature of the assay: Enzymatic IC50 assay, FAM-labeled DNA oligomer substrate, fluorescence intensity (FEN1). The following applies: hFEN1 70 pM, substrate 100 nM, reaction time 20 minutes, 23° C. In kind it is biochemical. The method, then: FEN1, EXO1 or XPG enzyme was incubated with compound or vehicle (DMSO) and the FAM-labeled DNA oligomer substrate in a microtiter plate. The stop buffer contains EDTA to stop the enzymatic reaction. The plate is read for fluorescence intensity. The high control (DMSO) with high fluorescence intensity represents no inhibition of enzymatic reaction while the low control (10 μM) with low fluorescence intensity represents full inhibition of enzymatic reaction.
• FEN1 • hFEN1: 70 pM • Substrate: 100 nM • Reaction time: 20 minutes • EXO1 • hEXO1: 6 nM, Isoforml • Substrate: 30 nM • Reaction time: 60 minutes • XPG • hXPG: 100 nM • Substrate: 100 nM • Reaction time: 120 minutes
Annealing Buffer: 50 mM Tris-HCl, 50 mM NaCl, 1 mM DTT Assay buffer: 50 mM Tris-HCl pH 8.0, 10 mM MgCl2, 0.01% BSA, 1 mM DTT Stop buffer: 50 mM EDTA in assay buffer Temperature: 23° C. Total volume: 40 μl Controls: • 0% inhibition control: DMSO • 100% inhibition control: 10 μM (final) 5-chloro-3-hydroxy-1,3-dihydroquinazoline-2,4-dione Enzyme Reaction and Detection: • 1. Prepare 25 μM intermediate stock of the substrate by diluting SEQ ID NO:1, SEQ ID NO:2, and SEQ ID NO:3 in annealing buffer, in a PCR tube. • 2. Place the PCR tube on a heat block, heat at 95° C. for 3 minutes, then drop in 0.2° C. increments over 2 minutes, stopping at 25° C. • 3. Remove the tube and let the tube cool at room temperature. • 4. Transfer 10 μL of 3× final concentration test compounds or DMSO to the appropriate wells of a microtiter plate. • 5. Transfer 10 μL of 3× final concentration enzyme in assay buffer or assay buffer alone to the appropriate wells. • 6. Incubate the plate at room temperature for 15 minutes. • 7. Transfer 10 μL of 3× substrate in assay buffer to all the test wells. • 8. Incubate the plate at room temperature for prescribed reaction time. • 9. Centrifuge the plate at 1000 rpm for 1 minute. • 10. Transfer 10 μL of stop buffer to all the test wells. • 11. Centrifuge the plate at 1000 rpm for 1 minute. • 12. Read the plate on a plate reader.
Usually IC50 stands for the concentration that inhibits the measured activity by half. A lower IC50 goes with greater potency in that assay. Compound `O=C(O)c1c(O)c(=O)n(CC2CCCO2)c2ccsc12` (centres unmarked) [Example 8, 6-hydroxy-5-oxo-4-(tetrahydrofuran-2-ylmethyl)thieno[3,2-b]pyridine-7-carboxylic acid] showed a concentration for half-maximal inhibition (IC50) of 750 to 2250 nM.

For `O=C(O)c1c(O)c(=O)n(CC2CCNCC2)c2ccsc12` [Example 10, 6-hydroxy-5-oxo-4-(4-piperidylmethyl)thieno[3,2-b]pyridine-7-carboxylic acid], the IC50 was in the range of 2250 to 10000 nM.

Take `O=C(O)c1c(O)c(=O)n(Cc2cccc(F)c2)c2ccsc12` [Example 11, 4-(3-fluorobenzyl)-6-hydroxy-5-oxo-4,5-dihydrothieno[3,2-b]pyridine-7-carboxylic acid]: the half-inhibitory concentration (IC50) fell in the range of 250 to 750 nM.

In turn, `O=C(O)c1c(O)c(=O)n(CC2COc3ccccc3O2)c2ccsc12` (centres unmarked) [Example 13, 4-(2,3-dihydro-1,4-benzodioxin-3-ylmethyl)-6-hydroxy-5-oxo-thieno[3,2-b]pyridine-7-carboxylic acid] showed an IC50 of less than 200 nM.

`CC(=O)Nc1ccc(Cn2c(=O)c(O)c(C(=O)O)c3sccc32)cc1Cl` [Example 14, 4-(4-acetamido-3-chlorobenzyl)-6-hydroxy-5-oxo-4,5-dihydrothieno[3,2-b]pyridine-7-carboxylic acid]: the half-maximal inhibitory concentration (IC50) lay in the range of 750 to 2250 nM.

In turn, `CC(C)(C)OC(=O)Nc1ccc(Cn2c(=O)c(O)c(C(=O)O)c3sccc32)cc1` [Example 15, 4-(4-((tert-butoxycarbonyl)amino)benzyl)-6-hydroxy-5-oxo-4,5-dihydrothieno[3,2-b]pyridine-7-carboxylic acid] displayed an IC50 of less than 200 nM.

Compound `O=C(O)c1c(O)c(=O)n(Cc2ccc3[nH]c(=O)ccc3c2)c2ccsc12` [Example 17, 6-hydroxy-5-oxo-4-[(2-oxo-1H-quinolin-6-yl)methyl]thieno[3,2-b]pyridine-7-carboxylic acid] gave a half-maximal inhibitory concentration (IC50) of 750 to 2250 nM.

`O=C(O)c1c(O)c(=O)n(Cc2ncn(-c3ccccc3)n2)c2ccsc12` [Example 20, 6-hydroxy-5-oxo-4-[(1-phenyl-1H-1,2,4-triazol-3-yl)methyl]-4,5-dihydrothieno[3,2-b]pyridine-7-carboxylic acid] showed an IC50 of 250 to 750 nM.

As to `O=C(O)c1c(O)c(=O)n(Cc2cnn(-c3ccc([N+](=O)[O-])cc3)c2)c2ccsc12` [Example 21, 6-hydroxy-4-{[1-(4-nitrophenyl)-1H-pyrazol-4-yl]methyl}-5-oxo-4,5-dihydrothieno[3,2-b]pyridine-7-carboxylic acid], the half-inhibitory concentration (IC50) was less than 200 nM.

With `COc1ccc(-n2cc(Cn3c(=O)c(O)c(C(=O)O)c4sccc43)nn2)cc1` [Example 25, 6-hydroxy-4-{[1-(4-methoxyphenyl)triazol-4-yl]methyl}-5-oxo-thieno[3,2-b]pyridine-7-carboxylic acid], the IC50 was less than 200 nM.

For `COc1cc(Cn2cc(Cn3c(=O)c(O)c(C(=O)O)c4sccc43)cn2)ccc1C#N` [Example 26, 4-{[1-(4-cyano-3-methoxybenzyl)-1H-pyrazol-4-yl]methyl}-6-hydroxy-5-oxo-4,5-dihydrothieno[3,2-b]pyridine-7-carboxylic acid], the IC50 was less than 200 nM.

Compound `O=C(O)c1c(O)c(=O)n(Cc2cnn(CC(=O)N3CC[C@@H](O)C3)c2)c2ccsc12` [Example 27, 6-hydroxy-4-[(1-{2-[(3R)-3-hydroxypyrrolidin-1-yl]-2-oxo-ethyl}pyrazol-4-yl)methyl]-5-oxo-thieno[3,2-b]pyridine-7-carboxylic acid] yielded an IC50 of less than 200 nM.

As to `CCOC(=O)c1c(O)c(=O)n(Cc2ccc(OC)cc2)c2ccsc12` [Example 33, ethyl 6-hydroxy-4-(4-methoxybenzyl)-5-oxo-4,5-dihydrothieno[3,2-b]pyridine-7-carboxylate], the IC50 was 2250 to 10000 nM.

With `O=C(O)c1c(O)c(=O)n(Cc2ccccc2Br)c2ccsc12` [Example 35, 4-(2-bromobenzyl)-6-hydroxy-5-oxo-4,5-dihydrothieno[3,2-b]pyridine-7-carboxylic acid], the IC50 was 2250 to 10000 nM.

For `O=C(O)c1c(O)c(=O)n(Cc2ccccn2)c2ccsc12` [Example 38, 6-hydroxy-5-oxo-4-(pyridin-2-ylmethyl)-4,5-dihydrothieno[3,2-b]pyridine-7-carboxylic acid], the concentration for half-maximal inhibition (IC50) fell in the range of 2250 to 10000 nM.

In the case of `CC(=O)Nc1ccccc1Cn1c(=O)c(O)c(C(=O)O)c2sccc21` [Example 39, 4-(2-acetamidobenzyl)-6-hydroxy-5-oxo-4,5-dihydrothieno[3,2-b]pyridine-7-carboxylic acid], the IC50 was 2250 to 10000 nM.

`O=C(O)c1c(O)c(=O)n(Cc2cccc(C(F)(F)F)c2)c2ccsc12` [Example 43, 6-hydroxy-5-oxo-4-(3-(trifluoromethyl)benzyl)-4,5-dihydrothieno[3,2-b]pyridine-7-carboxylic acid] had an IC50 of 250 to 750 nM.

Consider `O=C(O)c1c(O)c(=O)n(CC2CCCCC2)c2ccsc12` [Example 44, 4-(cyclohexylmethyl)-6-hydroxy-5-oxo-4,5-dihydrothieno[3,2-b]pyridine-7-carboxylic acid], for which the 50% inhibitory concentration (IC50) lay within 2250 to 10000 nM.

The compound `O=C(O)c1c(O)c(=O)n(Cc2ccncc2)c2ccsc12` [Example 47, 6-hydroxy-5-oxo-4-(pyridin-4-ylmethyl)-4,5-dihydrothieno[3,2-b]pyridine-7-carboxylic acid] came in with an IC50 of 2250 to 10000 nM.

Compound `Cn1nc(Cn2c(=O)c(O)c(C(=O)O)c3sccc32)c2ccccc21` [Example 51] yielded a half-inhibitory concentration (IC50) of 2250 to 10000 nM.

`COc1cccc(Cn2c(=O)c(O)c(C(=O)O)c3sccc32)c1` [Example 52, 6-hydroxy-4-(3-methoxybenzyl)-5-oxo-4,5-dihydrothieno[3,2-b]pyridine-7-carboxylic acid] came in with an IC50 of 250 to 750 nM.

Regarding `N#Cc1ccccc1Cn1c(=O)c(O)c(C(=O)O)c2sccc21` [Example 54, 4-(2-cyanobenzyl)-6-hydroxy-5-oxo-4,5-dihydrothieno[3,2-b]pyridine-7-carboxylic acid], the IC50 lay within 2250 to 10000 nM.

Consider `O=C(O)c1c(O)c(=O)n(Cc2cccc(OC(F)(F)F)c2)c2ccsc12` [Example 55, 6-hydroxy-5-oxo-4-(3-(trifluoromethoxy)benzyl)-4,5-dihydrothieno[3,2-b]pyridine-7-carboxylic acid], for which the concentration for half-maximal inhibition (IC50) is 750 to 2250 nM.

Compound `O=C(O)c1c(O)c(=O)n(Cc2ccc(OC(F)(F)F)cc2)c2ccsc12` [Example 56, 6-hydroxy-5-oxo-4-(4-(trifluoromethoxy)benzyl)-4,5-dihydrothieno[3,2-b]pyridine-7-carboxylic acid] displayed a 50% inhibitory concentration (IC50) of 2250 to 10000 nM.

As for `O=C(O)c1c(O)c(=O)n(Cc2ccc(OC(F)F)cc2)c2ccsc12` [Example 57, 4-(4-(difluoromethoxy)benzyl)-6-hydroxy-5-oxo-4,5-dihydrothieno[3,2-b]pyridine-7-carboxylic acid], the concentration for half-maximal inhibition (IC50) is less than 200 nM.

As to `N#Cc1cccc(Cn2c(=O)c(O)c(C(=O)O)c3sccc32)c1` [Example 58, 4-(3-cyanobenzyl)-6-hydroxy-5-oxo-4,5-dihydrothieno[3,2-b]pyridine-7-carboxylic acid], the concentration for half-maximal inhibition (IC50) was 2250 to 10000 nM.

As for `O=C(O)c1c(O)c(=O)n(Cc2ccc(Cl)c(Cl)c2)c2ccsc12` [Example 59, 4-(3,4-dichlorobenzyl)-6-hydroxy-5-oxo-4,5-dihydrothieno[3,2-b]pyridine-7-carboxylic acid], the half-inhibitory concentration (IC50) fell in the range of 250 to 750 nM.

`O=C(O)c1c(O)c(=O)n(Cc2cccnc2)c2ccsc12` [Example 60, 6-hydroxy-5-oxo-4-(pyridin-3-ylmethyl)-4,5-dihydrothieno[3,2-b]pyridine-7-carboxylic acid] registered a half-maximal inhibitory concentration (IC50) of 750 to 2250 nM.

`CC(C)(C)OC(=O)N1CCCC(Cn2c(=O)c(O)c(C(=O)O)c3sccc32)C1` (centres unmarked) [Example 61, 4-{[1-(tert-butoxycarbonyl)piperidin-3-yl]methyl}-6-hydroxy-5-oxo-4,5-dihydrothieno[3,2-b]pyridine-7-carboxylic acid] registered a half-maximal inhibitory concentration (IC50) of 2250 to 10000 nM.

`COc1ccccc1Cn1c(=O)c(O)c(C(=O)O)c2sccc21` [Example 64, 6-hydroxy-4-(2-methoxybenzyl)-5-oxo-4,5-dihydrothieno[3,2-b]pyridine-7-carboxylic acid]: the IC50 was in the range of 2250 to 10000 nM.

Compound `CC(=O)Nc1cc(Cn2c(=O)c(O)c(C(=O)O)c3sccc32)ccc1Cl` [Example 65, 4-(3-acetamido-4-chlorobenzyl)-6-hydroxy-5-oxo-4,5-dihydrothieno[3,2-b]pyridine-7-carboxylic acid] showed a 50% inhibitory concentration (IC50) of 250 to 750 nM.

On to `CNC(=O)c1ccc(Cn2c(=O)c(O)c(C(=O)O)c3sccc32)cc1` [Example 67, 6-hydroxy-4-(4-(methylcarbamoyl)benzyl)-5-oxo-4,5-dihydrothieno[3,2-b]pyridine-7-carboxylic acid], for which the IC50 lay within 250 to 750 nM.
